According to the supplement of paper PMC8882468:
± gives the standard deviation of the averaged measurements.

These compounds were tested on HCI-011.E2 (organoid from an ER-positive breast cancer xenograft) (assay: CTG-3D luminescence at 96 h relative to day-0 seeding control (ratio to day 0); higher = more growth / less cytotoxicity; PDxO 3D drug screen, 96 h, CTG-3D normalised to day-0 seeding control.). Conditions: 12.5 pM.

SMILES | CTG-3D luminescence at 96 h
C[C@H](NC(=O)CCC(F)(F)F)C(=O)N[C@@H]1C(=O)N(CCO)c2ncccc2-c2ccccc21 [crenigacestat] | 1.52 ± 0.18
COc1cccc2c1C(=O)c1c(O)c3c(c(O)c1C2=O)C[C@@](O)(C(=O)CO)C[C@@H]3O[C@H]1C[C@H](N)[C@H](O)[C@H](C)O1 [doxorubicin] | 1.59 ± 0.072
C[C@]12CC[C@@H]3c4ccc(O)cc4C[C@@H](CCCCCCCCC[S+]([O-])CCCC(F)(F)C(F)(F)F)[C@H]3[C@@H]1CC[C@@H]2O (stereo partly specified) [fulvestrant] | 1.73 ± 0.18
Nc1ccn([C@@H]2O[C@H](CO)[C@@H](O)C2(F)F)c(=O)n1 [gemcitabine] | 1.72 ± 0.47
C=CC(=O)N1CCC[C@@H](n2nc(-c3ccc(Oc4ccccc4)cc3)c3c(N)ncnc32)C1 [ibrutinib] | 1.7 ± 0.12
CN(Cc1cnc2nc(N)nc(N)c2n1)c1ccc(C(=O)N[C@@H](CCC(=O)O)C(=O)O)cc1 [methotrexate] | 1.46 ± 0.36
CC1(C)CCC(c2ccc(Cl)cc2)=C(CN2CCN(c3ccc(C(=O)NS(=O)(=O)c4ccc(N[C@H](CCN5CCOCC5)CSc5ccccc5)c(S(=O)(=O)C(F)(F)F)c4)cc3)CC2)C1 [navitoclax] | 1.62 ± 0.079
NC(=O)c1cccc2cn(-c3ccc([C@@H]4CCCNC4)cc3)nc12 [niraparib] | 1.33 ± 0.58

Same assay, conditions: 12.5 pM; days in culture: 74

SMILES | CTG-3D luminescence at 96 h
C[C@H](NC(=O)CCC(F)(F)F)C(=O)N[C@@H]1C(=O)N(CCO)c2ncccc2-c2ccccc21 [crenigacestat] | 2.42
COc1cccc2c1C(=O)c1c(O)c3c(c(O)c1C2=O)C[C@@](O)(C(=O)CO)C[C@@H]3O[C@H]1C[C@H](N)[C@H](O)[C@H](C)O1 [doxorubicin] | 2.69
C[C@]12CC[C@@H]3c4ccc(O)cc4C[C@@H](CCCCCCCCC[S+]([O-])CCCC(F)(F)C(F)(F)F)[C@H]3[C@@H]1CC[C@@H]2O (stereo partly specified) [fulvestrant] | 2.77
Nc1ccn([C@@H]2O[C@H](CO)[C@@H](O)C2(F)F)c(=O)n1 [gemcitabine] | 2.11
C=CC(=O)N1CCC[C@@H](n2nc(-c3ccc(Oc4ccccc4)cc3)c3c(N)ncnc32)C1 [ibrutinib] | 2.44
CN(Cc1cnc2nc(N)nc(N)c2n1)c1ccc(C(=O)N[C@@H](CCC(=O)O)C(=O)O)cc1 [methotrexate] | 1.97
CC1(C)CCC(c2ccc(Cl)cc2)=C(CN2CCN(c3ccc(C(=O)NS(=O)(=O)c4ccc(N[C@H](CCN5CCOCC5)CSc5ccccc5)c(S(=O)(=O)C(F)(F)F)c4)cc3)CC2)C1 [navitoclax] | 2.04
NC(=O)c1cccc2cn(-c3ccc([C@@H]4CCCNC4)cc3)nc12 [niraparib] | 1.93

Same assay, conditions: 0.00025 µM

SMILES | CTG-3D luminescence at 96 h
C[C@H](NC(=O)CCC(F)(F)F)C(=O)N[C@@H]1C(=O)N(CCO)c2ncccc2-c2ccccc21 [crenigacestat] | 2.05 ± 0.4
COc1cccc2c1C(=O)c1c(O)c3c(c(O)c1C2=O)C[C@@](O)(C(=O)CO)C[C@@H]3O[C@H]1C[C@H](N)[C@H](O)[C@H](C)O1 [doxorubicin] | 1.65 ± 0.22
C[C@]12CC[C@@H]3c4ccc(O)cc4C[C@@H](CCCCCCCCC[S+]([O-])CCCC(F)(F)C(F)(F)F)[C@H]3[C@@H]1CC[C@@H]2O (stereo partly specified) [fulvestrant] | 1.6 ± 0.35
Nc1ccn([C@@H]2O[C@H](CO)[C@@H](O)C2(F)F)c(=O)n1 [gemcitabine] | 1.78 ± 0.047
C=CC(=O)N1CCC[C@@H](n2nc(-c3ccc(Oc4ccccc4)cc3)c3c(N)ncnc32)C1 [ibrutinib] | 1.71 ± 0.029
CN(Cc1cnc2nc(N)nc(N)c2n1)c1ccc(C(=O)N[C@@H](CCC(=O)O)C(=O)O)cc1 [methotrexate] | 1.77 ± 0.6
CC1(C)CCC(c2ccc(Cl)cc2)=C(CN2CCN(c3ccc(C(=O)NS(=O)(=O)c4ccc(N[C@H](CCN5CCOCC5)CSc5ccccc5)c(S(=O)(=O)C(F)(F)F)c4)cc3)CC2)C1 [navitoclax] | 1.82 ± 0.28
NC(=O)c1cccc2cn(-c3ccc([C@@H]4CCCNC4)cc3)nc12 [niraparib] | 1.59 ± 0.46

Same assay, conditions: 0.00025 µM; days in culture: 74

SMILES | CTG-3D luminescence at 96 h
C[C@H](NC(=O)CCC(F)(F)F)C(=O)N[C@@H]1C(=O)N(CCO)c2ncccc2-c2ccccc21 [crenigacestat] | 2.44
COc1cccc2c1C(=O)c1c(O)c3c(c(O)c1C2=O)C[C@@](O)(C(=O)CO)C[C@@H]3O[C@H]1C[C@H](N)[C@H](O)[C@H](C)O1 [doxorubicin] | 1.99
C[C@]12CC[C@@H]3c4ccc(O)cc4C[C@@H](CCCCCCCCC[S+]([O-])CCCC(F)(F)C(F)(F)F)[C@H]3[C@@H]1CC[C@@H]2O (stereo partly specified) [fulvestrant] | 2.62
Nc1ccn([C@@H]2O[C@H](CO)[C@@H](O)C2(F)F)c(=O)n1 [gemcitabine] | 2.93
C=CC(=O)N1CCC[C@@H](n2nc(-c3ccc(Oc4ccccc4)cc3)c3c(N)ncnc32)C1 [ibrutinib] | 2.67
CN(Cc1cnc2nc(N)nc(N)c2n1)c1ccc(C(=O)N[C@@H](CCC(=O)O)C(=O)O)cc1 [methotrexate] | 2.4
CC1(C)CCC(c2ccc(Cl)cc2)=C(CN2CCN(c3ccc(C(=O)NS(=O)(=O)c4ccc(N[C@H](CCN5CCOCC5)CSc5ccccc5)c(S(=O)(=O)C(F)(F)F)c4)cc3)CC2)C1 [navitoclax] | 2.51
NC(=O)c1cccc2cn(-c3ccc([C@@H]4CCCNC4)cc3)nc12 [niraparib] | 2.01

Same assay, conditions: 0.005 µM

SMILES | CTG-3D luminescence at 96 h
C[C@H](NC(=O)CCC(F)(F)F)C(=O)N[C@@H]1C(=O)N(CCO)c2ncccc2-c2ccccc21 [crenigacestat] | 1.54 ± 0.61
COc1cccc2c1C(=O)c1c(O)c3c(c(O)c1C2=O)C[C@@](O)(C(=O)CO)C[C@@H]3O[C@H]1C[C@H](N)[C@H](O)[C@H](C)O1 [doxorubicin] | 1.4 ± 0.2
C[C@]12CC[C@@H]3c4ccc(O)cc4C[C@@H](CCCCCCCCC[S+]([O-])CCCC(F)(F)C(F)(F)F)[C@H]3[C@@H]1CC[C@@H]2O (stereo partly specified) [fulvestrant] | 1.24 ± 0.45
Nc1ccn([C@@H]2O[C@H](CO)[C@@H](O)C2(F)F)c(=O)n1 [gemcitabine] | 1.43 ± 0.32
C=CC(=O)N1CCC[C@@H](n2nc(-c3ccc(Oc4ccccc4)cc3)c3c(N)ncnc32)C1 [ibrutinib] | 1.45 ± 0.1
CN(Cc1cnc2nc(N)nc(N)c2n1)c1ccc(C(=O)N[C@@H](CCC(=O)O)C(=O)O)cc1 [methotrexate] | 1.44 ± 0.56
CC1(C)CCC(c2ccc(Cl)cc2)=C(CN2CCN(c3ccc(C(=O)NS(=O)(=O)c4ccc(N[C@H](CCN5CCOCC5)CSc5ccccc5)c(S(=O)(=O)C(F)(F)F)c4)cc3)CC2)C1 [navitoclax] | 1.33 ± 0.73
NC(=O)c1cccc2cn(-c3ccc([C@@H]4CCCNC4)cc3)nc12 [niraparib] | 1.3 ± 0.5

Same assay, conditions: 0.005 µM; days in culture: 74

SMILES | CTG-3D luminescence at 96 h
C[C@H](NC(=O)CCC(F)(F)F)C(=O)N[C@@H]1C(=O)N(CCO)c2ncccc2-c2ccccc21 [crenigacestat] | 1.96
COc1cccc2c1C(=O)c1c(O)c3c(c(O)c1C2=O)C[C@@](O)(C(=O)CO)C[C@@H]3O[C@H]1C[C@H](N)[C@H](O)[C@H](C)O1 [doxorubicin] | 2.17
C[C@]12CC[C@@H]3c4ccc(O)cc4C[C@@H](CCCCCCCCC[S+]([O-])CCCC(F)(F)C(F)(F)F)[C@H]3[C@@H]1CC[C@@H]2O (stereo partly specified) [fulvestrant] | 1.87
Nc1ccn([C@@H]2O[C@H](CO)[C@@H](O)C2(F)F)c(=O)n1 [gemcitabine] | 2.13
C=CC(=O)N1CCC[C@@H](n2nc(-c3ccc(Oc4ccccc4)cc3)c3c(N)ncnc32)C1 [ibrutinib] | 1.96
CN(Cc1cnc2nc(N)nc(N)c2n1)c1ccc(C(=O)N[C@@H](CCC(=O)O)C(=O)O)cc1 [methotrexate] | 1.99
CC1(C)CCC(c2ccc(Cl)cc2)=C(CN2CCN(c3ccc(C(=O)NS(=O)(=O)c4ccc(N[C@H](CCN5CCOCC5)CSc5ccccc5)c(S(=O)(=O)C(F)(F)F)c4)cc3)CC2)C1 [navitoclax] | 2.16
NC(=O)c1cccc2cn(-c3ccc([C@@H]4CCCNC4)cc3)nc12 [niraparib] | 1.98

Same assay, conditions: 0.1 µM

SMILES | CTG-3D luminescence at 96 h
C[C@H](NC(=O)CCC(F)(F)F)C(=O)N[C@@H]1C(=O)N(CCO)c2ncccc2-c2ccccc21 [crenigacestat] | 1.98 ± 0.64
COc1cccc2c1C(=O)c1c(O)c3c(c(O)c1C2=O)C[C@@](O)(C(=O)CO)C[C@@H]3O[C@H]1C[C@H](N)[C@H](O)[C@H](C)O1 [doxorubicin] | 1.98 ± 0.67
C[C@]12CC[C@@H]3c4ccc(O)cc4C[C@@H](CCCCCCCCC[S+]([O-])CCCC(F)(F)C(F)(F)F)[C@H]3[C@@H]1CC[C@@H]2O (stereo partly specified) [fulvestrant] | 1.51 ± 0.47
Nc1ccn([C@@H]2O[C@H](CO)[C@@H](O)C2(F)F)c(=O)n1 [gemcitabine] | 1.87 ± 0.49
C=CC(=O)N1CCC[C@@H](n2nc(-c3ccc(Oc4ccccc4)cc3)c3c(N)ncnc32)C1 [ibrutinib] | 2 ± 0.15
CN(Cc1cnc2nc(N)nc(N)c2n1)c1ccc(C(=O)N[C@@H](CCC(=O)O)C(=O)O)cc1 [methotrexate] | 1.83 ± 0.1
CC1(C)CCC(c2ccc(Cl)cc2)=C(CN2CCN(c3ccc(C(=O)NS(=O)(=O)c4ccc(N[C@H](CCN5CCOCC5)CSc5ccccc5)c(S(=O)(=O)C(F)(F)F)c4)cc3)CC2)C1 [navitoclax] | 1.72 ± 0.72
NC(=O)c1cccc2cn(-c3ccc([C@@H]4CCCNC4)cc3)nc12 [niraparib] | 1.76 ± 0.67
